Reference: US20240368163A1, “COMPOUNDS AND METHODS FOR MODULATING SPLICING” (REMIX THERAPEUTICS INC., priority 2021, published 2024)
Where two headings read alike, the source gives them in different places. Each block holds one compound with its values, some of them ahead of it.

How the values were obtained:
MYB [1] = assay: HiBiT protein abundance assay, MYB; format: cell-based, human; conditions: modified K562 cells
Method in brief: (§1)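 HiBiT-tagged endogenous targets in K562 cells treated 24 h at 37° C. with 10-point 3-fold dilutions (top 10 μM, DMSO ≤0.25%). Luminescence read after lytic LgBiT detection; response normalised to unmodified-cell and DMSO controls, IC50 interpolated at 50% from four-parameter logistic fit.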

[2] = Transwell assay for membrane efflux and permeability; format: in vitro ADME, Canine; conditions: dog; MDCK-BCRP or MDCKII-MDR1 transwell, test compound 1 μM, 2 hours at 37° C.
Excerpt: Compounds described herein were screened for cell membrane permeability and efflux in a transwell assay using Madin-Darby Canine Kidney (MDCK) cells expressing Breast Cancer Resistance Protein (BCRP) or subclone MDCKII cells expressing Multidrug Resistance Protein 1 (MDR1).
MDCK-BCRP or MDCKII-MDR1 Cells: The Netherlands Cancer Institute, High Glucose Dulbecco's Modified Eagle's Medium (DMEM): Gibco/Thermo Fisher Scientific, Fetal Bovine Serum (FBS): Coming, Hank's Balanced Salt Solution (HBSS) and Trypsin/EDTA: Gibco/Thermo Fisher Scientific, HTS Transwell-96 Well Permeable Supports: Coming Corporation, Millicell Epithelial Volt-Ohm: Millipore, Cellometer® Vision: Nexcelom Bioscience LLC, Infinite 200 PRO microplate reader: Tecan, MTS2/4 orbital shaker: IKA Labortechnik, HEPES/Penicillin/Streptomycin: Solarbio.
MDCK-BCRP or MDCKII-MDR1 cells were seeded to each of the wells of the transwell plate at a density of 1.6×10^6 cells/mL and the plate was incubated for 4-8 days with medium changes every two days. To perform the drug transport assay, cell monolayers were first washed three times with pre-warmed HBSS and then incubated with gentle shaking (150 rpm) for 30 min at 37° C. Stock solutions of test compounds (e.g., exemplary compounds of Formulas (I), (II), and (III)) and control compounds (e.g., metoprolol, prazosin, and/or imatinib) were prepared in DMSO and adjusted to a working solution using HBSS. The final concentration of test compounds was 1 μM with DMSO; 0.5%. The plates were incubated at 37° C. for 2 hours.

Target C [3] = assay: HiBiT protein abundance assay, Target C; format: cell-based, human; conditions: modified K562 cells
Method in brief: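 HiBiT knock-in K562-derived cells seeded at 10000/well and treated with 10-point 3-fold dilutions (top final 10 μM, ≤0.25% DMSO) for 24 h at 37 °C. Lytic HiBiT luminescence normalised to unmodified-cell and DMSO controls; IC50 from 4-parameter fit at 50% abundance.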

HTT [4] = assay: HiBiT protein abundance assay, HTT; format: cell-based, human; conditions: modified K562 cells
Method in brief: as §1

SMN2 = assay: Splicing RT-qPCR panel, SMN2 canonical junction (CJ) mRNA; format: cell-based, human; conditions: Homo sapiens, read-out: SMN2 IC50 (decrease in CJ mRNA levels)
Method in brief: (§2)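 Cells: A673 (DMEM/10% FBS) or K562 (IMDM/10% FBS). Dose: 11-pt 3-fold, top 10 uM final, ≤0.25% DMSO, 24 h, 37 °C. Readout: RT-qPCR of CJ/AJ exon junctions, ΔΔCt vs housekeeper and DMSO, RQ to % response.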

MYB [5] = assay: Splicing RT-qPCR assay, MYB mRNA canonical junction (CJ) and alternative junction (AJ); format: cell-based, human; conditions: Homo sapiens; for AC50: increase in AJ mRNA
Method in brief: as §2

Target C [6] = assay: Splicing RT-qPCR panel, Target C canonical junction (CJ) mRNA; format: cell-based, human; conditions: Homo sapiens, read-out: Target C IC50 (decrease in CJ mRNA levels)
Method in brief: as §2

HTT [7] = assay: Splicing RT-qPCR assay, HTT mRNA canonical junction (CJ) and alternative junction (AJ); format: cell-based, human; conditions: Homo sapiens; for AC50: increase in AJ mRNA
Method in brief: as §2

[8] = Homo sapiens, K562, 24 h, Table 13A
[9] = RT-qPCR panel, canonical junction mRNA, compound concentration having 50% response in CJ decrease
[10] = RT-qPCR panel, canonical junction mRNA, compound concentration having 50% response in CJ decrease, read-out: MYB IC50 (decrease in CJ mRNA levels)
[11] = RT-qPCR panel, canonical junction mRNA, compound concentration having 50% response in CJ decrease, read-out: HTT IC50 (decrease in CJ mRNA levels)
[12] = 24 h, decrease in CJ mRNA, A673 or K562 cells, 24 hours treatment, RT-qPCR, read-out: MYB CJ IC50
[13] = 24 h, A673 or K562 cells, 24 hours treatment, RT-qPCR
[14] = 24 h, decrease in CJ mRNA, A673 or K562 cells, 24 hours treatment, RT-qPCR, read-out: HTT CJ IC50
[15] = gene panel, CJ qPCR, protocol of Example 142
[16] = Homo sapiens, K562, 24 h, Table 13B

Compound: CN(c1ccc(-c2cc(F)c(-c3cn[nH]c3)c3cn[nH]c23)nn1)[C@@H]1C[C@H]2CC[C@@H](C1)N2 [Compound 147]
IC50 (MYB [1]; Table 13A, 24 hours): < 0.1 µM
Papp at 2 h, 1 μM [2]: < 2 ×10⁻⁶ cm/s
efflux ratio at 2 h, 1 μM [2]: > 5
IC50 (Target C [3]; Table 13A, 24 hours): < 0.1 µM
IC50 (HTT [4]; Table 13A, 24 hours): < 0.1 µM

Compound: CN(c1ccc(-c2ccc(-c3cnn(C)c3)c3cn[nH]c23)nn1)[C@@H]1C[C@H]2CC[C@@H](C1)N2 [Compound 386, (exo)-N-methyl-N-{6-[4-(1-methylpyrazol-4-yl)-1H-indazol-7-yl]pyridazin-3-yl}-8-azabicyclo[3.2.1]octan-3-amine]
IC50 (MYB [1]; [8]): < 0.1 µM
Papp at 2 h, 1 μM [2]: < 2 ×10⁻⁶ cm/s
efflux ratio at 2 h, 1 μM [2]: > 5
IC50 (Target C [3]; [8]): < 0.1 µM
IC50 (HTT [4]; [8]): < 0.1 µM

Compound: COc1cc(-c2ccc(-c3ccc(N(C)[C@@H]4C[C@H]5CC[C@@H](C4)N5)nn3)c3[nH]ncc23)ccn1 [Compound 385, (exo)-N-{6-[4-(2-methoxypyridin-4-yl)-1H-indazol-7-yl]pyridazin-3-yl}-N-methyl-8-azabicyclo[3.2.1]octan-3-amine]
Papp at 2 h, 1 μM [2]: < 2 ×10⁻⁶ cm/s
efflux ratio at 2 h, 1 μM [2]: > 5

Compound: CN(c1ncc(-c2ccc(-c3cn[nH]c3)c3ncsc23)nn1)C1CC(C)(C)NC(C)(C)C1 [Compound 567]
IC50 (SMN2; [9]): 0.1 to 1 µM
IC50 (MYB [5]; [10]): 1 to 10 µM
IC50 (MYB [1]; [8]): 1 to 10 µM
IC50 (Target C [6]; [9]): 0.1 to 1 µM
IC50 (Target C [3]; [8]): 0.1 to 1 µM
IC50 (HTT [7]; [11]): 0.1 to 1 µM
IC50 (HTT [4]; [8]): 0.1 to 1 µM

Compound: CN(c1ccc(-c2ccc(-c3cn[nH]c3)c3cn[nH]c23)nn1)[C@@H]1C[C@H]2CC(F)(F)[C@@H](C1)N2 (stereo in doubt) [Compound 376, 6,6-difluoro-N-methyl-N-{6-[4-(1H-pyrazol-4-yl)-1H-indazol-7-yl]pyridazin-3-yl}-8-azabicyclo[3.2.1]octan-3-amine]
IC50 (SMN2; [9]): < 0.1 µM
IC50 (MYB [5]; [12]): 0.1 to 1 µM
AC50 (MYB [5]; [13]): 0.1 to 1 µM
IC50 (MYB [5]; [10]): 0.1 to 1 µM
IC50 (MYB [1]; [8]): 0.1 to 1 µM
IC50 (Target C [6]; [9]): 0.1 to 1 µM
IC50 (Target C [3]; [8]): 0.1 to 1 µM
AC50 (HTT [7]; [13]): 0.1 to 1 µM
IC50 (HTT [7]; [11]): < 0.1 µM
IC50 (HTT [4]; [8]): 0.1 to 1 µM

Compound: CN1C[C@@H]2[C@H](C1)[C@H]2N(C)c1ccc(-c2ccc(-c3cn[nH]c3)c3cn[nH]c23)nn1 [Compound 302]
IC50 (SMN2; [9]): > 10 µM
IC50 (MYB [5]; [12]): > 10 µM
AC50 (MYB [5]; [13]): > 10 µM
IC50 (MYB [5]; [10]): > 10 µM
IC50 (MYB [1]; [8]): 1 to 10 µM
IC50 (Target C [6]; [9]): > 10 µM
IC50 (Target C [3]; [8]): > 10 µM
IC50 (HTT [7]; [14]): > 10 µM
AC50 (HTT [7]; [13]): > 10 µM
IC50 (HTT [7]; [11]): > 10 µM
IC50 (HTT [4]; [8]): > 10 µM

Compound: CN(c1ccc(-c2ccc(-c3cnc(=O)[nH]c3)c3scnc23)nn1)C1CC(C)(C)NC(C)(C)C1 [Compound 179]
IC50 (SMN2; [9]): 0.1 to 1 µM
IC50 (MYB [5]; [12]): 0.1 to 1 µM
AC50 (MYB [5]; [13]): 0.1 to 1 µM
IC50 (MYB [5]; [10]): 0.1 to 1 µM
IC50 (MYB [1]; [8]): 0.1 to 1 µM
IC50 (Target C [6]; [9]): 0.1 to 1 µM
IC50 (Target C [3]; [8]): 0.1 to 1 µM
IC50 (HTT [7]; [14]): 0.1 to 1 µM
AC50 (HTT [7]; [13]): 0.1 to 1 µM
IC50 (HTT [7]; [11]): 0.1 to 1 µM
IC50 (HTT [4]; [8]): 0.1 to 1 µM

IC50 (SMN2; [15]): > 10 µM
IC50 (MYB [5]; gene panel, CJ qPCR, protocol of Example 142, read-out: MYB IC50 (decrease in CJ mRNA levels)): > 10 µM
IC50 (MYB [1]; [16]): > 10 µM
IC50 (Target C [6]; [15]): > 10 µM
IC50 (Target C [3]; [16]): 1 to 10 µM
IC50 (HTT [7]; gene panel, CJ qPCR, protocol of Example 142, read-out: HTT IC50 (decrease in CJ mRNA levels)): > 10 µM
IC50 (HTT [4]; [16]): 1 to 10 µM
Compound: COc1nc(-c2ccc(OC3CC(C)(C)NC(C)(C)C3)nc2)ccc1-n1cccn1 [Compound 991]

Compound: c1nc2c(-c3cn[nH]c3)ccc(-c3ccc(N(C4CCNCC4)C4CC4)nn3)c2s1 [Compound 283]
IC50 (SMN2; [9]): 1 to 10 µM
IC50 (MYB [5]; [12]): > 10 µM
AC50 (MYB [5]; [13]): > 10 µM
IC50 (MYB [5]; [10]): > 10 µM
IC50 (MYB [1]; [8]): 0.1 to 1 µM
IC50 (Target C [6]; [9]): 1 to 10 µM
IC50 (Target C [3]; [8]): 1 to 10 µM
IC50 (HTT [7]; [14]): 1 to 10 µM
AC50 (HTT [7]; [13]): 1 to 10 µM
IC50 (HTT [7]; [11]): 1 to 10 µM
IC50 (HTT [4]; [8]): 1 to 10 µM
